Cl.Cl.Fc1ccc(C(c2ccc(F)cc2)N2CCN(C/C=C/c3ccccc3)CC2)cc1
solubility (mole fraction)
Conditions	in acetone	in acetonitrile	in ethanol	in ethyl acetate	in isobutanol	in isopropanol	in methanol	in methyl acetate	in n-butanol	in n-propanol
293.15 K	0.00271	0.00219	0.00522	0.00146	0.00186	0.0026	0.00604	0.00133	0.00185	0.00472
298.15 K	0.00338	0.00275	0.00649	0.00184	0.00236	0.00328	0.0076	0.00168	0.00236	0.00587
303.15 K	0.00422	0.00343	0.00792	0.00229	0.00296	0.00406	0.00934	0.00211	0.00296	0.00714
308.15 K	0.00518	0.00428	0.00975	0.00285	0.00371	0.00501	0.0115	0.00263	0.00372	0.00877
313.15 K	0.00638	0.00528	0.0119	0.00353	0.00462	0.00618	0.0139	0.00326	0.00464	0.0108
318.15 K	0.0078	0.00651	0.0145	0.00434	0.00573	0.00756	0.017	0.004	0.00575	0.013
323.15 K	0.00948	0.008	0.0176	0.0053	0.00711	0.00919	0.0207	0.00494	0.00712	0.0157
328.15 K	0.0115	0.00977	0.0211	0.00644	0.00873	0.0112	0.025	0.00603	0.00875	0.0189
333.15 K	0.0139	0.0119	0.0252	0.00782	0.0106	0.0136	0.0298	0.00736	0.0107	0.0225

Source: BigSolDB 2.1
